{"source": "the kinase profiling compilation of Christmann-Franck et al. (2016)", "note": "pKi: −log10 of the molar value.", "data": [{"target": "KDR (human) (UniProt P35968)", "test": "HTRF", "values": [{"smiles": "CCn1c(=O)/c(=C\\Nc2ccccc2)s/c1=C(/C#N)C(=O)O", "pKi": 5.40}]}, {"target": "CDK5 (human) (UniProt Q00535)", "sequence (Q00535 whole entry, looked up)": "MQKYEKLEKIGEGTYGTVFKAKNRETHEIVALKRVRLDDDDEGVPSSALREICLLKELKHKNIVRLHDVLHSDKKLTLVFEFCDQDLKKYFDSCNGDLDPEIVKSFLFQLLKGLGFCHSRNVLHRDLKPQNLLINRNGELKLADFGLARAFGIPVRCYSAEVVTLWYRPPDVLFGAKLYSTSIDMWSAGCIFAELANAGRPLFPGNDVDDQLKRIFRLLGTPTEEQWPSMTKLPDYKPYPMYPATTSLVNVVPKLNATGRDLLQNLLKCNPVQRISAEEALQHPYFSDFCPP", "test": "Flashplate", "values": [{"smiles": "O=C(O)c1ccccc1Nc1ncnc(Nc2ccc3cn[nH]c3c2)n1", "pKi": 6.60}]}, {"target": "DYRK1A (human) (UniProt Q13627)", "test": "Flashplate", "values": [{"smiles": "O=C(O)c1ccccc1Nc1ncnc(Nc2ccc3cn[nH]c3c2)n1", "pKi": 6.60}]}, {"target": "CDK19 (human) (UniProt Q9BWU1)", "sequence (Q9BWU1 whole entry, looked up)": "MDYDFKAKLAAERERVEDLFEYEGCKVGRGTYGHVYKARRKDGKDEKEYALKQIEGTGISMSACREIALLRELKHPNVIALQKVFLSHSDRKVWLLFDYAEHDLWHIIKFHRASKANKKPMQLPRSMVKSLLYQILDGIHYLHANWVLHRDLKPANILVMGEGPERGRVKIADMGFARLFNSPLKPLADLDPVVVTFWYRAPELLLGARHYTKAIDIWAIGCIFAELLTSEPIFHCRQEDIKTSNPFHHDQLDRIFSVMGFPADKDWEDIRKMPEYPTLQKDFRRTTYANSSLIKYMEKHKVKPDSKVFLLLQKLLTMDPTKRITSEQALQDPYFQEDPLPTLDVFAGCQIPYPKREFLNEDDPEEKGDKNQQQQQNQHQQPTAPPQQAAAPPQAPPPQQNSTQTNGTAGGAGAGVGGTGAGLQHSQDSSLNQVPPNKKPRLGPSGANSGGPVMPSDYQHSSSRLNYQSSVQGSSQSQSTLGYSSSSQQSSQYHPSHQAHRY", "test": "Flashplate", "values": [{"smiles": "Oc1cc(Cc2nc3ccccc3[nH]2)nn1-c1ccccc1", "pKi": "< 4.00"}, {"smiles": "O=[N+]([O-])c1ccc(-n2nc(-c3ccncc3)cc2O)cc1", "pKi": "< 4.00"}]}, {"target": "SGK1 (human) (UniProt O00141)", "sequence (O00141 whole entry, looked up)": "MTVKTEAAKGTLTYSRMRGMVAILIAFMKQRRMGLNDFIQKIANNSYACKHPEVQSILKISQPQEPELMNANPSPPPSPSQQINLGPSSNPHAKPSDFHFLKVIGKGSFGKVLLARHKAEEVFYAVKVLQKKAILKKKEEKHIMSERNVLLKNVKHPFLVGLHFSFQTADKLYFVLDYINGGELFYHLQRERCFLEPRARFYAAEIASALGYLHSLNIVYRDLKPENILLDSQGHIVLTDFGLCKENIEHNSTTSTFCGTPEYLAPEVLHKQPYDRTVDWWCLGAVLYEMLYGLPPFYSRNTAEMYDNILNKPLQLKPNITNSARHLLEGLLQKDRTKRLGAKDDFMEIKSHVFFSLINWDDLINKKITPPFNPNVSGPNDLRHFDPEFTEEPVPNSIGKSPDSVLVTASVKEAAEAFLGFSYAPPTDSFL", "test": "Flashplate", "values": [{"smiles": "CCn1c(=O)/c(=C\\Nc2ccccc2)s/c1=C(/C#N)C(=O)O", "pKi": 5.40}, {"smiles": "COc1cc2ncn(-c3cc(OCc4ccccc4C(F)(F)F)c(C(N)=O)s3)c2cc1OC", "pKi": "< 5.00"}, {"smiles": "O=S(=O)(c1cccc2cnccc12)N1CCCNCC1", "pKi": 5.20}, {"smiles": "COc1cc2ncn(-c3cc(OCc4ccccc4C(F)(F)F)c(C(=O)O)s3)c2cc1OC", "pKi": "< 5.00"}, {"smiles": "COCCO[C@H]1CC[C@H](n2nc(-c3ccc(Nc4nc5cc(C)cc(Cl)c5o4)cc3)c3c(N)ncnc32)CC1", "pKi": "< 5.00"}, {"smiles": "COc1ccc(-c2cc3nccn3c(Nc3ccccc3C(N)=O)n2)cc1OC", "pKi": "< 5.00"}, {"smiles": "COc1ccc(-c2cnc3c(Br)cnn3c2)cc1", "pKi": 5.50}, {"smiles": "Cn1cc(/C=C2\\C(=O)Nc3cccnc32)c2ccccc21", "pKi": 5.60}, {"smiles": "CCCOn1c2ccc(Cl)cc2c(=O)c2c(C)nn(C)c21", "pKi": "< 5.00"}, {"smiles": "COc1ccc(/C=C2/S/C(=N/c3ccccc3)NC2=O)cc1O", "pKi": 5.30}, {"smiles": "C(=N\\Nc1nc2ccccc2[nH]1)/c1c[nH]c2ccccc12", "pKi": "< 5.00"}, {"smiles": "O=c1c2c([nH]c3cc(-c4ccco4)nn13)CSC2", "pKi": "< 5.00"}, {"smiles": "Cc1ccc2nccc(NC(=O)Nc3cccc(C(F)(F)F)n3)c2c1", "pKi": "< 5.00"}, {"smiles": "O=c1[nH]c2cc(-c3ccccc3)cnc2[nH]1", "pKi": "< 5.00"}, {"smiles": "Nc1ncnc2c1c(I)nn2[C@H]1CC[C@@H](O)CC1", "pKi": 5.70}, {"smiles": "C(=C\\c1cncc(O[C@@H]2CCNC2)c1)/c1ccncc1", "pKi": "< 5.00"}, {"smiles": "CNC(=O)c1cc(Oc2ccc(NC(=O)Nc3cccc(C(F)(F)F)c3)cc2)ccn1", "pKi": "< 5.00"}, {"smiles": "COc1cccc([C@H](C)NC(=O)c2ccc(-c3ccncc3)cc2)c1", "pKi": "< 5.00"}, {"smiles": "N[C@H](COc1cncc(-c2ccc3c(c2)/C(=C/c2ccco2)C(=O)N3)c1)Cc1c[nH]c2ccccc12", "pKi": 7.60}, {"smiles": "CCC(N)(C#Cc1cnc(N)c2c(-c3ccc(NC(=O)Nc4cccc(C)c4)cc3)csc12)CC", "pKi": 5.40}, {"smiles": "CC(=O)NCC(=O)N1C2CCC1c1cc(Nc3ncc(C(F)(F)F)c(NC4CCC4)n3)ccc12", "note": "(configuration not stated)", "pKi": 6.40}, {"smiles": "CCN(CC)CC#Cc1cnc(N)c2c(-c3ccc(NC(=O)Nc4cccc(C)c4)cc3)csc12", "pKi": "< 5.00"}, {"smiles": "Cc1ccc(CNc2c(Nc3ccncc3)c(=O)c2=O)cc1", "pKi": 5.40}, {"smiles": "O=c1nc(-c2cc3c(Oc4ccc(I)cc4)cncc3s2)[nH]o1", "pKi": 6.10}, {"smiles": "Cc1nccn2c(-c3ccnc(NCCC(C)(C)O)n3)c(-c3ccc(F)cc3F)nc12", "pKi": "< 5.00"}, {"smiles": "Nc1n[nH]c2ccc(-c3nnn(Cc4ccccc4)c3-c3ccc(F)cc3)cc12", "pKi": 5.60}, {"smiles": "O=C1Nc2ccc3ncsc3c2/C1=C/Nc1ccc(S(=O)(=O)Nc2ccccn2)cc1", "pKi": 7.80}, {"smiles": "O=C(CO)N1CCC(c2[nH]nc(-c3ccc(Cl)cc3F)c2-c2ccncn2)CC1", "pKi": "< 5.00"}, {"smiles": "CCN(CC)CCCNc1cccc(-c2nc3c(C(N)=O)cccc3[nH]2)n1", "pKi": "< 5.00"}, {"smiles": "NCCCNS(=O)(=O)c1cccc(C(=O)Nc2ccc(-c3n[nH]c(=O)c4ccccc34)cc2)c1", "pKi": "< 5.00"}, {"smiles": "N#Cc1c(O)[nH]c(=O)c2c(=N)oc3ccc(Cl)cc3c12", "pKi": "< 5.00"}, {"smiles": "N#CC1=C(N)n2c(s/c(=C\\c3ccco3)c2=O)=C(C(N)=O)C1c1ccco1", "note": "(configuration not stated)", "pKi": "< 5.00"}, {"smiles": "COc1cc2cnc3c(c2cc1OC)C(=O)NC3=O", "pKi": "< 5.00"}, {"smiles": "NC(=O)c1cc2c(-c3ccccc3)cncc2s1", "pKi": 5.30}, {"smiles": "CC(=O)Nc1cccc(CNc2c(Nc3ccc4[nH]ncc4c3)c(=O)c2=O)c1", "pKi": 6.80}, {"smiles": "NC[C@@H](O)[C@@H](O)Cn1cc(I)c2c(N)ncnc21", "pKi": 5.30}, {"smiles": "Cc1ccc(F)c(NC(=O)Nc2ccc(-c3cncc4c3c(N)nn4C)cc2)c1", "pKi": "< 5.00"}, {"smiles": "CN(C)C(=O)c1c(-c2ccc3[nH]ncc3c2)nnn1Cc1ccccc1", "pKi": 5.70}, {"smiles": "COc1cccc([C@@H](C)NC(=O)N2CC=C(c3c[nH]c4ncccc34)CC2)c1", "pKi": 7.70}, {"smiles": "O=c1[nH]c2ccc(Cl)cc2c(-c2ccccc2)c1C1=NNC(c2ccccc2)C1", "note": "(configuration not stated)", "pKi": "< 5.00"}, {"smiles": "O=C(NCc1ccc(Cl)c(Cl)c1)Nc1ccc2[nH]ncc2c1", "pKi": 6.30}, {"smiles": "CCCC(=O)Nc1n[nH]c2ccc(-c3cccc(F)c3F)cc12", "pKi": "< 5.00"}, {"smiles": "CCCC(=O)Nc1nn(C(=O)CC)c2nc3ccccc3cc12", "pKi": "< 5.00"}, {"smiles": "COc1ccc(/C=C2/S/C(=N/c3ccccc3)NC2=O)cc1OC", "pKi": "< 5.00"}, {"smiles": "Cc1ccc(-c2nn(C(C)(C)C)c3ncnc(N)c23)cc1", "pKi": "< 5.00"}, {"smiles": "NC(=O)c1cc2c(Oc3ccc(Br)cc3)cncc2s1", "pKi": 5.70}, {"smiles": "O=C1Cc2c([nH]c3ccc(Br)cc23)-c2ncccc2N1", "pKi": "< 5.00"}, {"smiles": "Cc1ccc(C(=O)Nc2c(C#N)sc3ccc(Cl)c(Cl)c23)cc1", "pKi": "< 5.00"}, {"smiles": "O=C(Nc1cccc(C(F)(F)F)n1)Nc1ccnc2c(C(F)(F)F)cccc12", "pKi": "< 5.00"}, {"smiles": "NS(=O)(=O)c1cccc(Nc2ncc3ccn(Cc4ccccc4)c3n2)c1", "pKi": 5.40}, {"smiles": "Cc1cccc(NC(=O)Nc2ccc(-c3csc4ccnc(N)c34)cc2)c1", "pKi": "< 5.00"}, {"smiles": "Cc1cccc(NC(=O)Nc2ccc(-c3cccc4[nH]ncc34)cc2)c1", "pKi": 5.70}, {"smiles": "Cc1cc(Nc2ncc(F)c(N[C@H]3[C@@H](C(N)=O)[C@@H]4C=C[C@H]3C4)n2)ccc1N1CCN(C)CC1", "pKi": 5.80}, {"smiles": "CCOc1nc(C(=O)NCc2ccccc2S(N)(=O)=O)cc(N)c1Cl", "pKi": "< 5.00"}, {"smiles": "C[C@H](Nc1c(Nc2ccncc2)c(=O)c1=O)c1ccccc1", "pKi": "< 5.00"}, {"smiles": "O=C(Nc1ccc2[nH]ncc2c1)c1cccc(F)c1", "pKi": "< 5.00"}]}, {"target": "CHEK2 (human) (UniProt O96017)", "sequence (O96017 whole entry, looked up)": "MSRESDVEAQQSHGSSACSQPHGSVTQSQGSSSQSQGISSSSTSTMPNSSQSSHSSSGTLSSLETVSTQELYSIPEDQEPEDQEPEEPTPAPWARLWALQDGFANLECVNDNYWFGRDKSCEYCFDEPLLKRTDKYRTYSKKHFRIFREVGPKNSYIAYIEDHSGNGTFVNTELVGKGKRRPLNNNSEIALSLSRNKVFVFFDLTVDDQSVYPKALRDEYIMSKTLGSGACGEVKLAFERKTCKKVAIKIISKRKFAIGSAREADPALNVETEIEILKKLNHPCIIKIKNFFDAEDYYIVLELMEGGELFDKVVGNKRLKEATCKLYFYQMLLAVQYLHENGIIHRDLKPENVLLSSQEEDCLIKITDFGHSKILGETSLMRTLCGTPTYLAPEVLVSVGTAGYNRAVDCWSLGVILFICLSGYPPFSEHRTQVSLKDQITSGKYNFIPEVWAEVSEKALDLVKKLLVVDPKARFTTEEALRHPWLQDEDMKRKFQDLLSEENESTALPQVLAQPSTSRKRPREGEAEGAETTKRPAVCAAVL", "test": "Flashplate", "values": [{"smiles": "CCn1c(=O)/c(=C\\Nc2ccccc2)s/c1=C(/C#N)C(=O)O", "pKi": 5.40}]}, {"target": "PLK3 (human) (UniProt Q9H4B4)", "sequence (Q9H4B4 whole entry, looked up)": "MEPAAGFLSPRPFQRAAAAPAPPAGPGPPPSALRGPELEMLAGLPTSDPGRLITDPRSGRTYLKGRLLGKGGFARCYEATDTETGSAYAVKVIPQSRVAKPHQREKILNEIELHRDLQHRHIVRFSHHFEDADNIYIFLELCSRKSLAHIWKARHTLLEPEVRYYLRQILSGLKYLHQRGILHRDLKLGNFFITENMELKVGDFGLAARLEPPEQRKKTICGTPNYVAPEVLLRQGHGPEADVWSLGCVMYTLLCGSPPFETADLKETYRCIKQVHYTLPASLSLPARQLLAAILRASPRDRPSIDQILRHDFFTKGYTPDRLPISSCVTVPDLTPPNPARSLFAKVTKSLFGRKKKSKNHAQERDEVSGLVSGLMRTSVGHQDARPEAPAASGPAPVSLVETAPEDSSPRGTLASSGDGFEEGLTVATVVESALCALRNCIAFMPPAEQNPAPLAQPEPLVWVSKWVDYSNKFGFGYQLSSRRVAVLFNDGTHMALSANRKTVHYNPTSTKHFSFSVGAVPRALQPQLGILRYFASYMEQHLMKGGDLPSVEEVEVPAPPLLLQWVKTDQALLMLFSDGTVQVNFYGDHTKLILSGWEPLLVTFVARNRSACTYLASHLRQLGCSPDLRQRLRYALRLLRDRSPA", "test": "Flashplate", "values": [{"smiles": "COc1cc2ncn(-c3cc(OCc4ccccc4C(F)(F)F)c(C(N)=O)s3)c2cc1OC", "pKi": 8.10}]}, {"target": "CLK4 (human) (UniProt Q9HAZ1)", "sequence (Q9HAZ1 whole entry, looked up)": "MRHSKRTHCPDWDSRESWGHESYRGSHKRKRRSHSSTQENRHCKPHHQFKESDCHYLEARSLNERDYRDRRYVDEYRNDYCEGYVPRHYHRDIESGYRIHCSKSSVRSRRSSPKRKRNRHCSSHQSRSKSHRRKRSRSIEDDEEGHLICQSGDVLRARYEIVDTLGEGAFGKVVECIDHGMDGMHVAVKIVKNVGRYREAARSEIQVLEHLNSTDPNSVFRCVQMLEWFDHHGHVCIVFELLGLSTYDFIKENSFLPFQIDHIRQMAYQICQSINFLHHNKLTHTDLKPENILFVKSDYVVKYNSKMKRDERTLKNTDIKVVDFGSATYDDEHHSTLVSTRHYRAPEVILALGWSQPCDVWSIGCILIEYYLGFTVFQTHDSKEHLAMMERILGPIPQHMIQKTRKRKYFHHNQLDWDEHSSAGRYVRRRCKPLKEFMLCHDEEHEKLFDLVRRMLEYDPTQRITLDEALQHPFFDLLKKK", "test": "Flashplate", "values": [{"smiles": "Oc1cc(Cc2nc3ccccc3[nH]2)nn1-c1ccccc1", "pKi": 5.90}]}, {"target": "CDC7 (human) (UniProt O00311)", "sequence (O00311 whole entry, looked up)": "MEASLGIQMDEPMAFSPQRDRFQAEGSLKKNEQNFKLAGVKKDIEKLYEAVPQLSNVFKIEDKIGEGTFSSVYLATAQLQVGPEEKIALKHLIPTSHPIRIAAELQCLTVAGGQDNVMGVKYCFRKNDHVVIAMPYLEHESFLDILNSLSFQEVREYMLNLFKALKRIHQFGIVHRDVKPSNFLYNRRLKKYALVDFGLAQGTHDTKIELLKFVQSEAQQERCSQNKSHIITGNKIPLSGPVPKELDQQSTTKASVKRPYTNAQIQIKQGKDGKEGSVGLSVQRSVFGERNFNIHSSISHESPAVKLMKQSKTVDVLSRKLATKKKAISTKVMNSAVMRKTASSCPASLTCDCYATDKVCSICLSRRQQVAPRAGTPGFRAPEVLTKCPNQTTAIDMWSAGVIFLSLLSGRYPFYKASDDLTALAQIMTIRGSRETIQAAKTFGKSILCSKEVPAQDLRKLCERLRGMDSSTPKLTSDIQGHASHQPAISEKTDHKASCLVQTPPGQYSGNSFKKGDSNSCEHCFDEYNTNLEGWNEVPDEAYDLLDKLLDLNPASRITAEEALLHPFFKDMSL", "test": "Flashplate", "values": [{"smiles": "CN(C)c1ccc(-c2c(-c3ccc4[nH]nc(N)c4c3)nnn2Cc2ccccc2)cc1", "pKi": 9.40}, {"smiles": "O=[N+]([O-])c1ccc(-n2nc(-c3ccncc3)cc2O)cc1", "pKi": 6.30}]}, {"target": "MARK3 (human) (UniProt P27448)", "sequence (P27448 whole entry, looked up)": "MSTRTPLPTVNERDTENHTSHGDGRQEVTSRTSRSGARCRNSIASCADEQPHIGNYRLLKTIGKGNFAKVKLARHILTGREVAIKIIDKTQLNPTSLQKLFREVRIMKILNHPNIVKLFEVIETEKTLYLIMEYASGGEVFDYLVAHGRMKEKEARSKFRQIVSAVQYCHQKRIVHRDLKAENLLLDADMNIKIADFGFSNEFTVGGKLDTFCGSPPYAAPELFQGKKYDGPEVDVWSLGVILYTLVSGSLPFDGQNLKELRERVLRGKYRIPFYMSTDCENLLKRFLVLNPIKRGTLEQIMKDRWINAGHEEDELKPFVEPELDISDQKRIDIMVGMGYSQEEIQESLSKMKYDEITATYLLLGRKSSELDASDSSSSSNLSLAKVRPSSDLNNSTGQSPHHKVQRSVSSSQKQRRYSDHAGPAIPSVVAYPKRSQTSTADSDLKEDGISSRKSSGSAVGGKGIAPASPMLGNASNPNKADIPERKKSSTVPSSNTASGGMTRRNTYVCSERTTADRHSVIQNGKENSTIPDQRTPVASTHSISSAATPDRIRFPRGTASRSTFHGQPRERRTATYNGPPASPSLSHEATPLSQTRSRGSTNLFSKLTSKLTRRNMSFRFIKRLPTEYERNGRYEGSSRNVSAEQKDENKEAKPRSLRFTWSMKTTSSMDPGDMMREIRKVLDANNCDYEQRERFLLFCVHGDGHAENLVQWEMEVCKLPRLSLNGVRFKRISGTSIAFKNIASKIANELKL", "test": "Flashplate", "values": [{"smiles": "CCn1c(=O)/c(=C\\Nc2ccccc2)s/c1=C(/C#N)C(=O)O", "pKi": 5.40}]}]}
